Biological target: T1, binding between Rap1 and p30 (Homo sapiens, UniProt P62834+Q8WWW0)
T1 construct: made in house; 293T cells for Myc-p30 (crude lysate)
T1 sequence (P62834 1-184): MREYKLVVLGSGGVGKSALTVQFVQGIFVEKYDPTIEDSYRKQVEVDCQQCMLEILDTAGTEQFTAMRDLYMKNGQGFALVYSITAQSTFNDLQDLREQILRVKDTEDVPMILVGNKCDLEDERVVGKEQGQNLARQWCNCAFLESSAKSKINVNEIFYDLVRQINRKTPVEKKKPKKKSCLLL
T1 sequence (Q8WWW0 1-265 isoform Q8WWW0-2): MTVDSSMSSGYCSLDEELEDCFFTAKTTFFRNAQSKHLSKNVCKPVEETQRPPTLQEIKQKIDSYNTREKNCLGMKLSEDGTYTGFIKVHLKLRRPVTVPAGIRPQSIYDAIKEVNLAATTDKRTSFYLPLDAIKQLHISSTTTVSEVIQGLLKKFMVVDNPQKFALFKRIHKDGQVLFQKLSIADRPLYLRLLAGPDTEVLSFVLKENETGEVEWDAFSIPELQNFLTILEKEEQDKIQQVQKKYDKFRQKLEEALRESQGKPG
Test: Rap1-p30 binding inhibition assay (GST-Rap1 beads pull-down of Myc-p30 lysate, western blot)
Settings: 1 μM compound, GTPγS-activated Rap1, reaction 4° C. 30 sec; FIG. 7
Procedure: For a plasmid for production of GST-Rap1 fusion protein, pGEX-3× (product of Amersham Pharmacia Biotech) was used. The Rap1 coding sequence represented by SEQ ID NO:1 was inserted between BamHI and EcoRI restriction enzyme sites of the vector. At this time, two nucleotide pair CC were added in front of the 5′ terminal ATG of the nucleotide sequence represented by SEQ ID NO:1 for frame adjustment. […] GGATCCCCATG . . . 3′. The obtained plasmid for production of GST-Rap1 fusion protein was transfected into E. coli. The E. coli with the inserted plasmid was cultured, and GST-Rap1 protein was produced within E. coli cells by inducing the protein production with 0.2 mM IPTG (isopropylthiogalactopyranoside) (30° C., 2 hours). The E. coli cells were recovered by centrifugation, solubilized in a lysis buffer (100 mM NaCl, 50 mM Tris-HCl (pH 7.5), 1% Triton X100, 2 mM MgCl2, 0.1 TIU/ml Aprotinin), and disrupted by sonication. The solution was centrifuged, and then glutathione Sepharose 4B beads (product of Amersham) was added to the obtained supernatant and reacted at 4° C. for one hour to prepare GST-Rap1 beads.
A plasmid of p30-Myc tag was introduced into 293T cells in 70% confluency by electroporation. […]
The bands visualized by exposing to the film for chemiluminescence were quantitated with use of image analyzing software (Win Roof, product of Mitani Corp.). […]

CCS(=O)(=O)Nc1ncc(C(F)(F)F)cc1NC(=O)C1CCCCC1.O.[Na] [compound 1, N-(2-ethylsulfonylamino-5-trifluoromethyl-3-pyridyl)cyclohexanecarboxamide monosodium salt monohydrate]
p30 band volume (brightness×area) of p30 bound to activated GST-Rap1, compared to group without addition: significantly lower

— patent US20070031415A1, “Regulation of interaction between rapl and rap1” (priority 2002, published 2007)
